The results in this text go back to patent US20250368638A1, “BICYCLIC INHIBITORS OF NICOTINAMIDE […], COMPOSITIONS AND USES THEREOF” (President and Fellows of Harvard College, priority 2021, published 2025).

Molecules are shown by their SMILES. Several values for one entry are separate records, joined by “and”; a condition that tells them apart may be missing. Equal entries are not always repeated. Bounds are passed on as bounds.

One data set can be described thus: FIG. 19. How it is done: Table printed on a drawing sheet, FIG. 19
Footnotes: %Q: The percent of compound remaining after 60 minutes of exposure to liver microsomes
The patent's description of the figure: FIG. 19 is a table summarizing PK/PD data for compounds 1 to 3 and 11.
First reader's note: The CL value of Compound 11 (36.1) is boxed on the sheet.

For a further data set, the target named is T1, recombinant human NNMT (Homo sapiens, UniProt P40261).
T1 sequence (P40261 1-264): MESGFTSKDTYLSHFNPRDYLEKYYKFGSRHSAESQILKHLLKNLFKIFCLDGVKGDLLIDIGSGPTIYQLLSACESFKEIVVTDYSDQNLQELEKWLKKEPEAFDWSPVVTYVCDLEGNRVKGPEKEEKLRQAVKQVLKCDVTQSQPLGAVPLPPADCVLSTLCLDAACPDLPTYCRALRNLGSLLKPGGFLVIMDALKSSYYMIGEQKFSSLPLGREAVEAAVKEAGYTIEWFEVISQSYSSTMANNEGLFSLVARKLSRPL
The experiment in a line: in vitro NNMT enzyme inhibition assay (Promega MTase-Glo Methyltransferase Assay). The format is biochemical. The note with it: 40 nM recombinant human NNMT, 8 μM nicotinamide, 6.7 μM SAM, 20 minutes. How it is done: NNMT biochemical activity for was evaluated using the Promega Mtase-Glo Methyltransferase Assay kit. Assays were performed in a white, flat-bottomed 96 well plate. […] Reactions were performed for 20 minutes at room temperature. MTase-Glo reagent and MTase-Glo detection solution were added according to manufacturer's instructions and luminescence signal measured with a SpectraMax i3 plate reader and data analyzed with GraphPad Prism version 9. Scheme 16 depicts a visual summary of the Promega MTase-Glo Methyltransferase assay used to assess biochemical activity of novel inhibitors.

A further data set relates to K562 (ATCC) cells. The data set is described as follows: Cellular potency: 1-MNA levels in K562 cells after compound incubation. In kind it is cell-based. The following applies: Homo sapiens, 24 h incubation. How it is done:
Cellular potency was measured in K562 (ATCC) cells via measuring (1-methyl nicotinamide) 1-MNA levels after compound incubation at varying concentrations overnight. Cells were plated at 1 million per well and were incubated for 24 h with compounds at indicated concentrations. Cells were collected by pipetting and extracted with 200 ul acetonitrile containing internal deuterated standard 10 ng/ml d4-1-MNA. Samples were analyzed on an Agilent 64-60 Triple Quad LC/MS with Agilent 1290 Infinity HPLC using a Restek Allure 5 um PPFP column 150 mm×2.1. The mobile phase A was 2.5 mM ammonium formate in water, and mobile phase B was methanol with 0.1% formic acid, delivered at 0.25 mL/min. The capillary voltage was set to 2400V and the nozzle at 300V. The drying gas temperature was 240° C., the drying gas flow rate was 4 L/min, and the nebulizer pressure was 40 psi. The mass spectrometer was run in multiple reaction monitoring mode. Mass transitions were m/z 137.1 à 94.1 for 1-MNA and m/z 141.1 à 98.1 for d4-MNA.

Data set [1] is described as follows: Permeability assay in Caco-2 cells. The following applies: human; for Papp A→B at 2 h, 5 μM / Papp B→A at 2 h, 5 μM / efflux ratio at 2 h, 5 μM: Caco-2, pH 7.4; for recovery at 2 h, 5 µM: Caco-2. How it is done: Preparation of Caco-2 Cells: 50 μL and 25 mL of cell culture medium were added to each well of the Transwell insert and reservoir, respectively. And then the HTS transwell plates were incubated at 37° C., 5% CO2 for 1 hour before cell seeding. […] Cell culture medium was replaced every other day, beginning no later than 24 hours after initial plating.
Preparation of Stock Solutions: The stock solutions of control and test compounds were prepared in DMSO at the concentration of 10 mM. Digoxin, Prazosin and propranolol were used as control compounds in this assay.
Assay Procedures: The Caco-2 plate was removed from the incubator and washed twice with pre-warmed HBSS (10 mM HEPES, pH 7.4), and then incubated at 37° C. for 30 minutes. The stock solutions of controls and Test compounds were diluted in DMSO to get 1 mM solutions and then diluted with HBSS (10 mM HEPES, pH 7.4) to get 5 μM working solutions. The final concentration of DMSO in the incubation system was 0.5%. To determine the rate of drug transport in the apical to basolateral direction. Add 125 μL of the test compounds to the Transwell insert (apical compartment), and transfer 50 μL sample (DO sample) immediately from the apical compartment to a new 96-well plate. Fill the wells in the receiver plate (basolateral compartment) with 235 μL of HBSS (10 mM HEPES, pH 7.4). To determine the rate of drug transport in the basolateral to apical direction. Add 285 μL of the test compounds to the receiver plate wells (basolateral compartment), and transfer 50 μL sample (DO sample) immediately from the basolateral compartment to a new 96-well plate. Fill the Transwell insert (apical compartment) with 75 μL of HBSS (10 mM HEPES, pH 7.4). Time 0 samples were prepared by transferring 50 μL of 5 μM working solution to wells of the 96-deepwell plate, followed by the addition of 200 μL cold acetonitrile containing appropriate internal standards (100 nM alprazolam, 200 nM labetalol, 200 nM caffeine and 200 nM diclofenac). The plates were incubated at 37° C. for 2 hours. […] Samples were vortexed for 5 minutes and then centrifuged at 3,220 g for 40 minutes. An aliquot of 100 μL of the supernatant was mixed with 100 μL of ultra-pure water to use for LC-MS/MS analysis. To determine the Lucifer Yellow leakage after 2 hour transport period, stock solution of Lucifer yellow was prepared in water and diluted with HBSS (10 mM HEPES, pH 7.4) to reach the final concentration of 100 μM. 100 μL of the Lucifer yellow solution was added to each Transwell insert (apical compartment), followed by filling the wells in the receiver plate (basolateral compartment) with 300 μL of HBSS (10 mM HEPES, pH 7.4). The plates were incubated at 37° C. for 30 minutes. 80 μL samples were removed directly from the apical and basolateral wells (using the basolateral access holes) and transferred to wells of new 96 wells plates.
(In general: Caco-2 cells form a polarised layer with tight junctions and transporters.)

A further data set is described as follows: FIG. 20. From the text: Table printed on a drawing sheet, FIG. 20
The patent's description of the figure: FIG. 20 is a table summarizing mean PK parameters of various compound 11 samples after different PO dosages in female C57B16/N mice.
First reader's note: The asterisks on two AUC values are not explained on the sheet; the first grid row holds only the heading 'PK Parameter'.

[2] abbreviates: Caco-2, pH 7.4, Recovery (%) AP-BL.
Where [3] appears, read: Caco-2, pH 7.4, Recovery (%) BL-AP.

`NC(=O)c1cnc2c(c1)CCN2` [Compound 1]: in “FIG. 19”, the “%Q (Human)” value worked out at 101.05%, the “%Q (Mouse)” value came out at 88.98%, the “AUClast” value worked out at 255 ng·h/mL and the “CL” value came to 64.2 mL/min/kg. In the data set “FIG. 19”, the “T1/2” value came to 10.9 min and the distribution volume (Vss) came out at 0.904 L/kg. The IC50 at recombinant human NNMT was 105 nM.
For the molecule `Cc1c(C(N)=O)cnc2c1CC(C)N2` (stereo not shown) [Compound 18], the IC50 on recombinant human NNMT is 848 nM.
On to `Cc1c(C(N)=O)cnc2c1C[C@@H](C)N2` [Compound 19A], for which the IC50 at recombinant human NNMT is 28 nM and 28 to 43 nM; in the data set on K562 (ATCC) cells, 12 nM.
Consider `C[C@H]1Nc2ncc(C(N)=O)cc2[C@@H]1C` [Compound 26A], for which the values for the IC50 on recombinant human NNMT and with K562 (ATCC) cells were 20 nM and 114 nM, respectively.
On to `C[C@H]1O[C@@H](O[C@H]2[C@@H](O)C[C@H](O[C@H]3[C@@H](O)C[C@H](O[C@H]4CC[C@@]5(C)[C@H](CC[C@@H]6[C@@H]5C[C@@H](O)[C@]5(C)[C@@H](C7=CC(=O)OC7)CC[C@]65O)C4)O[C@@H]3C)O[C@@H]2C)C[C@H](O)[C@@H]1O` [Digoxin], for which, in data set [1], the Papp A→B at 2 h, 5 μM is 0.67 ×10⁻⁶ cm/s; the apparent permeability from basolateral to apical (Papp B→A) at 2 h, 5 μM came out at 19 ×10⁻⁶ cm/s; the efflux ratio at 2 h, 5 μM came to 28.2. For the same molecule, in data set [1] (setting [2]), the recovery at 2 h, 5 µM was 79.1%. The molecule also yielded a recovery at 2 h, 5 µM in data set [1] (setting [3]) of 94.5%.
In the case of `COc1cc2nc(N3CCN(C(=O)c4ccco4)CC3)nc(N)c2cc1OC` [Prazosin], in data set [1], the apparent permeability from apical to basolateral (Papp A→B) at 2 h, 5 μM came out at 9.44 ×10⁻⁶ cm/s; the Papp B→A at 2 h, 5 μM turned out to be 28.9 ×10⁻⁶ cm/s; the efflux ratio at 2 h, 5 μM is 3.06. In data set [1] (setting [2]), the recovery at 2 h, 5 µM was 77%. This molecule also registered a recovery at 2 h, 5 µM in data set [1] (setting [3]) of 90.4%.
On the same counts, the results for `CC(C)NCC(O)COc1cccc2ccccc12` (stereo not shown) [Propranolol] are 26.9 ×10⁻⁶ cm/s, 16.6 ×10⁻⁶ cm/s, 0.62, 80% and 88.5%.
On to `C[C@@H]1Cc2cc(C(N)=O)cnc2N1` [compound 11], for which, in the data set “FIG. 20”, the “AUClast (h*ng/mL)” value is 54,351 h*ng/mL; the “F(%)” value is above 100%; the “T1/2” value was 41.6 min and 50.5 min and 42.5 min; the “Tmax” value was 20 min and 34.8 min.

By Vss is commonly meant a proportionality between amount in the body and measured concentration, not a real space. What is called IC50 is the midpoint of a concentration-inhibition curve. One may read the Papp A→B as how fast a substance crosses the layer from the apical side. Higher therefore signals ready permeation. Broadly, the Papp B→A is the apparent permeability from the basolateral to the apical side of a cell layer. What is called efflux ratio is the permeability from basolateral to apical divided by that in the opposite direction, in the common usage. The term Tmax denotes the time at which the peak concentration occurs.
